These results are taken from patent US20150274719A1, “AMINO-SUBSTITUTED IMIDAZO[1,2-A]PYRIDINECARBOXAMIDES AND THEIR USE” (BAYER PHARMA AKTIENGESELLSCHAFT, priority 2012, published 2015).

The assay has as its target T1, recombinant guanylate cyclase reporter cell line (Rattus norvegicus, UniProt P19686+P20595).
T1 construct: expressed in transfected cells; host or cells: recombinant reporter cell line
T1 sequence (P19686 1-690): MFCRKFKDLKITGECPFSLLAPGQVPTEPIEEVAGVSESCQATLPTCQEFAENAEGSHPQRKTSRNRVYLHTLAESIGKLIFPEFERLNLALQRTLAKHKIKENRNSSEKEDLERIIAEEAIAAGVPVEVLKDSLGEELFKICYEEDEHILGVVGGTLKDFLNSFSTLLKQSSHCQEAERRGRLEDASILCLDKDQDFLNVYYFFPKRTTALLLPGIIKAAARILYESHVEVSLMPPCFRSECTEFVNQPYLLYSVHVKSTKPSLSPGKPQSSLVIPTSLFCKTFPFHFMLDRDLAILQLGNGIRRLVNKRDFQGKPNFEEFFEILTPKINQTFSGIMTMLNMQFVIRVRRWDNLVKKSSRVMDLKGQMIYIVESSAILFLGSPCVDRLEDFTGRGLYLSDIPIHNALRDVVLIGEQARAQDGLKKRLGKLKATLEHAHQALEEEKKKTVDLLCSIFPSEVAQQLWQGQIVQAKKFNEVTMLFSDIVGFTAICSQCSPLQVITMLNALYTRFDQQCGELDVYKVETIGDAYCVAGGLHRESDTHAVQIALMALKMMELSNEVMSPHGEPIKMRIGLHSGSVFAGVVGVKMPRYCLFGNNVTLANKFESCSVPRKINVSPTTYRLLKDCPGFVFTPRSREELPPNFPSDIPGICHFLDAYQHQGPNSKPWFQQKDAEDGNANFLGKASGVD
T1 sequence (P20595 1-619): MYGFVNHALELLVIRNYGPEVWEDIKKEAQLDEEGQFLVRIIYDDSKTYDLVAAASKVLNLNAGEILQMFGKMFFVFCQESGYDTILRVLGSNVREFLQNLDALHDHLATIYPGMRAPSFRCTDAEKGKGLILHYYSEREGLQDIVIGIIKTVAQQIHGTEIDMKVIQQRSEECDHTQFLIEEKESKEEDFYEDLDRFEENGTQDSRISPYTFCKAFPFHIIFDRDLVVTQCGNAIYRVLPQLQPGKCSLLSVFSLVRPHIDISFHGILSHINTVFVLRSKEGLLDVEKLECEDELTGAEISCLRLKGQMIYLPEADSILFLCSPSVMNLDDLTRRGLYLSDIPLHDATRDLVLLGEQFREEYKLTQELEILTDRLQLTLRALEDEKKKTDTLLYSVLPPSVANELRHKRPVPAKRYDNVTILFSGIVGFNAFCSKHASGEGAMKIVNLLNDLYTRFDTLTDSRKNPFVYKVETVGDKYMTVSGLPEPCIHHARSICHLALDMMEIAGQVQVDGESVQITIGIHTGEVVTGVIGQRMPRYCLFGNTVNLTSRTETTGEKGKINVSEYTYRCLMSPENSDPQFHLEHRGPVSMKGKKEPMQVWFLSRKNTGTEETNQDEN
Put plainly: Action on recombinant guanylate cyclase reporter cell line. Format: cell-based. As to conditions: in some cases mean values from individual determinations. The procedure, abridged: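 Reported value is the minimal effective concentration (MEC), in some cases a mean of single runs, taken from a recombinant rat guanylate cyclase reporter cell line.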

Counter-ions that a name gives are not always drawn.

Consider `Cc1cc(OCc2c(F)cccc2F)c2nc(C)c(C(=O)NC(C#N)CN)n2c1` (racemic) [Example 416, rac-N-(2-amino-1-cyanoethyl)-8-[(2,6-difluorobenzyl)oxy]-2,6-dimethylimidazo[1,2-a]pyridine-3-carboxamide], for which the “MEC (minimal effective concentration)” value was determined as 1.00 µM. The same measure for `Cc1nc2c(OCc3c(F)cccc3F)cccn2c1C(=O)NC(C)CN` (single isomer, unassigned) [Example 19, ent-N-(1-Aminopropan-2-yl)-8-[(2,6-difluorobenzyl)oxy]-2-methylimidazo[1,2-a]pyridine-3-carboxamide]: 1.66 µM; for `Cc1nc2c(OCc3c(F)cccc3F)cccn2c1C(=O)NC(C)CN` (single isomer, unassigned) [Example 20, ent-N-(1-Aminopropan-2-yl)-8-[(2,6-difluorobenzyl)oxy]-2-methylimidazo[1,2-a]pyridine-3-carboxamide]: 1.00 µM. Then `Cc1nc2c(OCc3c(F)cccc3F)cc(Cl)cn2c1C(=O)NCC(C)N` (single isomer, unassigned) [Example 29, ent-N-(2-Aminopropyl)-6-chloro-8-[(2,6-difluorobenzyl)oxy]-2-methylimidazo[1,2-a]pyridine-3-carboxamide], with 0.20 µM.

On to `Cc1nc2c(OCc3c(F)cccc3F)cc(Cl)cn2c1C(=O)NCC(C)N` (single isomer, unassigned) [Example 30, ent-N-(2-Aminopropyl)-6-chloro-8-[(2,6-difluorobenzyl)oxy]-2-methylimidazo[1,2-a]pyridine-3-carboxamide], for which the “MEC (minimal effective concentration)” value came out at 0.30 µM.

With `CCOCC(CN)NC(=O)c1c(C)nc2c(OCc3c(F)cccc3F)cccn12` (single isomer, unassigned) [Example 56, ent-N-(1-amino-3-ethoxypropan-2-yl)-8-[(2,6-difluorobenzyl)oxy]-2-methylimidazo[1,2-a]-pyridine-3-carboxamide], the “MEC (minimal effective concentration)” value was found to be 1.00 µM. The same measure for `CCOCC(CN)NC(=O)c1c(C)nc2c(OCc3c(F)cccc3F)cc(Cl)cn12` (single isomer, unassigned) [Example 57, ent-N-(1-amino-3-ethoxypropan-2-yl)-6-chloro-8-[(2,6-difluorobenzyl)oxy]-2-methylimidazo[1,2-a]-pyridine-3-carboxamide]: 0.30 µM; for `Cc1nc2c(OCc3c(F)cccc3F)cccn2c1C(=O)NC(CN)COC(C)C` (single isomer, unassigned) [Example 93, ent-N-(1-Amino-3-isopropoxypropan-2-yl)-8-[(2,6-difluorobenzyl)oxy]-2-methylimidazo[1,2-a]-pyridine-3-carboxamide]: 0.30 µM; for `Cc1nc2c(OCc3c(F)cccc3F)cccn2c1C(=O)NCC(C)CN` (single isomer, unassigned) [Example 95, ent-N-(3-Amino-2-methylpropyl)-8-[(2,6-difluorobenzyl)oxy]-2-methylimidazo[1,2-a]pyridine-3-carboxamide dihydrochloride]: 1.00 µM. Then `Cc1nc2c(OCc3c(F)cccc3F)cccn2c1C(=O)NCC(C)CN` (single isomer, unassigned) [Example 96, ent-N-(3-Amino-2-methylpropyl)-8-[(2,6-difluorobenzyl)oxy]-2-methylimidazo[1,2-a]pyridine-3-carboxamide dihydrochloride], with 1.00 µM. Then `COCC(CN)NC(=O)c1c(C)nc2c(OCc3c(F)cccc3F)cccn12` (single isomer, unassigned) [Example 122, ent-N-(1-Amino-3-methoxypropan-2-yl)-8-[(2,6-difluorobenzyl)oxy]-2-methylimidazo[1,2-a]-pyridine-3-carboxamide ditrifluoroacetate], with 1.00 µM. With `COCC(CN)NC(=O)c1c(C)nc2c(OCc3c(F)cccc3F)cccn12` (single isomer, unassigned) [Example 123, ent-N-(1-Amino-3-methoxypropan-2-yl)-8-[(2,6-difluorobenzyl)oxy]-2-methylimidazo[1,2-a]-pyridine-3-carboxamide ditrifluoroacetate], the “MEC (minimal effective concentration)” value is 3.00 µM. The same measure for `Cc1nc2c(OCc3c(F)cccc3F)cccn2c1C(=O)NCC(N)CC(F)(F)F` (single isomer, unassigned) [Example 126, ent-N-(2-Amino-4,4,4-trifluorobutyl)-8-[(2,6-difluorobenzyl)oxy]-2-methylimidazo[1,2-a]pyridine-3-carboxamide]: 0.30 µM; for `Cc1nc2c(OCc3c(F)cccc3F)cccn2c1C(=O)NCC(N)CC(F)(F)F` (single isomer, unassigned) [Example 127, ent-N-(2-Amino-4,4,4-trifluorobutyl)-8-[(2,6-difluorobenzyl)oxy]-2-methylimidazo[1,2-a]pyridine-3-carboxamide]: 1.00 µM; for `Cc1cc(OCc2c(F)cccc2F)c2nc(C)c(C(=O)NCC(N)CC(F)(F)F)n2c1` (single isomer, unassigned) [Example 128, ent-N-(2-Amino-4,4,4-trifluorobutyl)-8-[(2,6-difluorobenzyl)oxy]-2,6-dimethylimidazo[1,2-a]-pyridine-3-carboxamide]: 0.10 µM. The same measure for `Cc1cc(OCc2c(F)cccc2F)c2nc(C)c(C(=O)NCC(N)CC(F)(F)F)n2c1` (single isomer, unassigned) [Example 129, ent-N-(2-Amino-4,4,4-trifluorobutyl)-8-[(2,6-difluorobenzyl)oxy]-2,6-dimethylimidazo[1,2-a]-pyridine-3-carboxamide]: 0.10 µM. Consider `Cc1nc2c(OCc3c(F)cccc3F)cccn2c1C(=O)NC(C)[C@H](C)N` (single isomer, unassigned) [Example 174], for which the “MEC (minimal effective concentration)” value stood at 0.30 µM.

As for `Cc1nc2c(OCc3c(F)cccc3F)cccn2c1C(=O)NC(C)[C@H](C)N` (single isomer, unassigned) [Example 175], the “MEC (minimal effective concentration)” value was determined as 1.00 µM. Regarding `Cc1nc2c(OCc3c(F)cccc3F)cccn2c1C(=O)NC(C)[C@@H](C)N` (single isomer, unassigned) [Example 176], the “MEC (minimal effective concentration)” value stood at 1.00 µM. Then `Cc1nc2c(OCc3c(F)cccc3F)cccn2c1C(=O)NC(C)[C@@H](C)N` (single isomer, unassigned) [Example 177], with 1.00 µM. Turning to `Cc1nc2c(OCC3CCCCC3)cccn2c1C(=O)NC(CN)c1ccc(F)c(F)c1` (single isomer, unassigned) [Example 178, ent-N-[2-Amino-1-(3,4-difluorophenyl)ethyl]-8-(cyclohexylmethoxy)-2-methylimidazo[1,2-a]-pyridine-3-carboxamide], the “MEC (minimal effective concentration)” value worked out at 0.30 µM. Regarding `Cc1nc2c(OCC3CCCCC3)cccn2c1C(=O)NC(CN)c1ccc(F)c(F)c1` (single isomer, unassigned) [Example 179, ent-N-[2-Amino-1-(3,4-difluorophenyl)ethyl]-8-(cyclohexylmethoxy)-2-methylimidazo[1,2-a]-pyridine-3-carboxamide], the “MEC (minimal effective concentration)” value is 1.00 µM. Then `Cc1nc2c(OCc3c(F)cccc3F)cccn2c1C(=O)NC12CNCCC1C2` (single isomer, unassigned) [Example 184, ent-N-(3-Azabicyclo[4.1.0]hept-1-yl)-8-[(2,6-difluorobenzyl)oxy]-2-methylimidazo[1,2-a]pyridine-3-carboxamide], with 1.00 µM; and `Cc1nc2c(OCc3c(F)cccc3F)cccn2c1C(=O)NC12CNCCC1C2` (single isomer, unassigned) [Example 185, ent-N-(3-Azabicyclo[4.1.0]hept-1-yl)-8-[(2,6-difluorobenzyl)oxy]-2-methylimidazo[1,2-a]pyridine-3-carboxamide], with 1.00 µM.
